Read-outs that look alike come from different tables or passages of the source.
Assays:
Plasmodium [1] = conditions: antimalarial; pLDH; cited from earlier work
From the text: (§1) Table 1 Structural diversity and antimalarial potential of secondary metabolites derived from cyanobacteria. | column: IC50 (µM) || As part of an effort to identify antiplasmodial and antifouling metabolites, two cyanobacteria from two geographically distinct environments were studied: a Malaysian Moorea bouillonii and a Red Sea Okeania sp. Moorea and Okeania genera were delineated from the Lyngbya genus. As phylogenetically close genera, they produce similar compounds. In this study, the lyngbyabellin family depsipeptides were isolated from Moorea bouillonii and Okeania sp. These kinds of compounds were initially found in the sea hare Dolabella auricularia after being identified from cyanobacterial origins as p ...

[2] = tested on: various cancer cell lines; conditions: cited from earlier work
From the text: as §1, with “As” for “Table 1 Structural diversity and antimalarial potential of secondary metabolites derived from cyanobacteria. | column: IC50 (µM) || As”

H460, Neuro-2a = conditions: range over H460, Neuro-2a; cited from earlier work
From the text: (§2) Table 2 Diversity of biological activities reported for Lyngbyabellins in the literature from 2000 to 2020. | column: IC50 (µM)

H460, HCT116 = conditions: range over H460, HCT116; cited from earlier work
From the text: as §2

H460 = conditions: cited from earlier work
From the text: as §2

MCF7 breast cancer cells [3] = conditions: cited from earlier work
From the text: These differences in cytotoxicity were attributed to the dissimilarities in their structures.

[4] = tested on: Amphibalanus amphitrite barnacle larvae; parameters: method as in PMID 29019684; conditions: A.amphitrite barnacle cypris; cited from earlier work
Plasmodium [5] = conditions: antimalarial, cited from earlier work
From the text: Table 1 Structural diversity and antimalarial potential of secondary metabolites derived from cyanobacteria. | column: IC50 (µM)

HT29, HeLA = conditions: range over HT29, HeLA; cited from earlier work
From the text: as §2

[6] = tested on: Plasmodium falciparum strain FCR-3; assay: Antiplasmodial assay, Giemsa staining; assay type: cell-based
Method: Compound 1 isolated from Okeania sp., and compounds 6 and 7 from M. bouillonii were tested against the malaria parasite (P. falciparum). […] The assay was repeated three times in the concentration range of 0.05–10 (μg/mL). It is noteworthy that the mechanisms of antiplasmodial compounds isolated from M. bouillonii impeding the growth of Plasmodium are still unclear. […] However, as 1 and 7 were reported as cytotoxic towards cancer cells, we hypothesized that they act in the same way on erythrocytes, which distorts the results of the antimalarial assay.
The Giemsa staining method previously described by Aydin-Schmidt was used to evaluate the ability of compounds to inhibit the malaria parasite. A synchronized culture of Plasmodium falciparum strain FCR-3, the late-ring stage, was used (parasitemia 2%) for this assay. A series of compound concentrations were applied in 96-well microplates and incubated for 72 h at 37 °C in a reduced oxygen atmosphere. Compounds 1, 6, and 7 were dissolved in DMSO and tested in triplicate at three separate times. Chloroquine was used as a positive control and cultured medium with 1% DMSO (final concentration of solvent in all compound tested) as a negative control. Each assay was conducted in triplicate (n = 3). After 72 h, the parasitic level was evaluated by Giemsa and light microscopy. The inhibition level of compounds against Plasmodium was calculated using the formula previously reported.

HT29, HeLA, KB, LoVo = conditions: range over HT29, HeLA; cited from earlier work
From the text: as §2

[7] = tested on: P. falciparum (liver-stage); conditions: cited from earlier work
From the text: as §2

MCF7 breast cancer cells [8] = assay: Cytotoxicity MTT assay on MCF7 breast cancer cells; assay type: cell-based, human; conditions: MTT after 72 h incubation; for IC50: 37 °C, read-out: IC50, cytotoxicity with respect to MCF7 breast cancer cells
Method: The cytotoxicity of the compounds was determined according to a procedure reported previously. MCF7 breast cancer cells were maintained in RPMI-1640 medium with 10% fetal bovine serum (FBS). The cells were plated into 96-well plates with a density of 1.0 × 10^4 cells per well. After 24 h incubation, the cells were exposed to different concentrations of compounds, with cisplatin as a positive control and with 1% filtered ethanol as a negative control. The MTT assay was conducted after 72 h of incubation at 37 °C and 5% CO2.

KB = conditions: cited from earlier work
From the text: as §2

H460, Neuro-2a, MCF7 = conditions: range over H460, Neuro-2a, cited from earlier work
From the text: as §2

KB, LoVo = conditions: range over KB; cited from earlier work
From the text: as §2

HT29, HeLA, CA46, PtK2 = conditions: range over HT29, HeLA; cited from earlier work
From the text: as §2

[9] = tested on: Amphibalanus amphitrite barnacle larvae; assay: Antifouling (settlement inhibition) assay on A. amphitrite cyprids; assay type: in vivo
Method: As for all the compounds, the activity remained after 120 h of exposure.
The antifouling activity of the compounds was determined according to a procedure reported previously. Briefly, the newly developed cyprids of A. amphitrite were tested against several different concentrations of the isolated compounds (1–5) (0.03–10 μg/mL) in triplicate (n = 3). The assays were conducted using 24-well polystyrene culture plates, with each well containing 2 mL seawater and six cyprids. […] The total number of dead cyprids was counted after 120 h of exposure. Antifouling activity was expressed as an EC50 according to Probit analysis. CuSO4 was used as a positive control and 80% filtered (0.20 µm of pore filter) natural seawater (diluted with deionized water) as a negative control.

HT29, HeLA, MCF7 = conditions: range over HT29, HeLA, MCF7 value from current study; cited from earlier work
From the text: as §2

[10] = strain FCR-3, late-ring (intraerythrocytic) stage, parasitemia 2%, 72 h, 37 °C, 0.05–10 μg/mL, repeated three times, triplicate, read-out: IC50 against malaria parasite (P. falciparum)
[11] = previous study, read-out: IC50, cytotoxicity with respect to MCF7 breast cancer cells
[12] = A.amphitrite barnacle cypris, current study

Q: For Dolastatin 10, which IC50 (Plasmodium [1]) is on record?
A: 0.1 nM

Q: And the “Selectivity index against various cancer cell lines” value [2]?
A: ≤ 1

Q: With Lyngbyabellin F as the molecule, how does the IC50 (H460, Neuro-2a) read?
A: 1000 to 1800 nM

Q: With Lyngbyabellin N as the molecule, how does the IC50 (H460, HCT116) read?
A: 4.8 to 1800 nM

Q: Which “IC50 (µM)” value (H460) does the source give for Lyngbyabellin K here?
A: Inactive

Q: For lyngbyabellin P [Compound 3], which IC50 (MCF7 breast cancer cells [3]; MCF7, read-out: IC50) is on record?
A: 9000 nM

Q: And the “EC50” value [4]?
A: 0.62 µg/mL

Q: Which IC50 (Plasmodium [5]; Pico-Green) does the source give for Venturamide A here?
A: 8200 nM

Q: Which IC50 (H460, Neuro-2a) does the source give for Lyngbyabellin E here?
A: 400 to 1200 nM

Q: Which IC50 (Plasmodium [5]; Pico-Green) does the source give for Gallinamide A here?
A: 8400 nM

Q: With Lyngbyabellin L as the molecule, how does the “IC50 (µM)” value (H460) read?
A: Inactive

Q: For Hoshinoamide A, which IC50 (Plasmodium [1]) is on record?
A: 5200 nM

Q: For Lyngbyabellin J, which IC50 (HT29, HeLA) is on record?
A: 41 to 54 nM

Q: What does the source list for lyngbyabellin A [Compound 7]?
A: IC50 ([6]; P.falciparum (intraerythrocytic stage), current study, read-out: IC50): 300 nM; IC50 (Plasmodium [5]; Sybr Green): 1.5 nM; IC50 (HT29, HeLA, KB, LoVo): 21 to 345 nM; IC50 [7]: 1.5 nM

Q: Which IC50 (Plasmodium [5]; Sybr Green) does the source give for Ulongamide A here?
A: 990 nM

Q: For homohydroxydolabellin [Compound 6], which IC50 [6, 10] is on record?
A: 6400 nM

Q: What about the “Cytotoxicity towards MCF7 cells” value (MCF7 breast cancer cells [8]) of the same molecule?
A: > 50 µg/mL

Q: And the “Cytotoxicity with respect to MCF7 breast cancer cells (in words)” value (MCF7 breast cancer cells [8])?
A: non-cytotoxicity

Q: For Lyngbyabellin D, which IC50 (KB) is on record?
A: 100 nM

Q: For Mabunamide, which IC50 (Plasmodium [1]) is on record?
A: 1400 nM

Q: With `C/C1=C/C(=O)O[C@H](C(C)(C)C)CCC[C@H](O)CCC[C@H](O)CCC[C@H](O)CCC[C@@H](O)C[C@@H](O)C[C@H](O)CCC[C@@H](O)CCC[C@@H](O)C[C@@H](O)CCCCC1` [Bastimolide A] as the molecule, how does the IC50 (Plasmodium [5]; Sybr Green) read?
A: 270 nM

Q: Which IC50 (Plasmodium [1]) does the source give for Ikoamide here?
A: 140 nM

Q: Which IC50 (MCF7 breast cancer cells [3]; [11]) does the source give for lyngbyabellin G [Compound 1] here?
A: 120000 nM

Q: What about the IC50 [6, 10] of the same molecule?
A: 1100 nM

Q: And the “EC50” value [4]?
A: 4.41 µg/mL

Q: What about the IC50 (H460, Neuro-2a, MCF7) of the same molecule?
A: 2200 to 120000 nM

Q: Which IC50 (H460, Neuro-2a) does the source give for Lyngbyabellin I here?
A: 700 to 1000 nM

Q: With Lyngbyabellin C as the molecule, how does the IC50 (KB, LoVo) read?
A: 2100 to 5300 nM

Q: With lyngbyabellin O [Compound 2] as the molecule, how does the “IC50 (µM)” value (MCF7 breast cancer cells [3]; MCF7) read?
A: Inactive

Q: And the IC50 (MCF7 breast cancer cells [3]; [11])?
A: > 160000 nM

Q: And the “EC50” value [4]?
A: 0.24 µg/mL

Q: With Lyngbyabellin B as the molecule, how does the IC50 (HT29, HeLA, CA46, PtK2) read?
A: 100 to 1100 nM

Q: With `C/C1=C/C(=O)O[C@H](CCC[C@@H](O)CCC[C@@H](O)CCC[C@@H](O)CCC[C@H](O)C(C)(C)C)C[C@@H](O)C[C@H](O)CCC[C@@H](O)CCC[C@@H](O)C[C@@H](O)CCCCC1` [Bastimolide B] as the molecule, how does the IC50 (Plasmodium [5]; Pico-Green) read?
A: 5700 nM

Q: Which IC50 (Plasmodium [1]) does the source give for Dolastatin 15 here?
A: 2.4 nM

Q: What does the source list for lyngbyabellin H [Compound 4]?
A: Antifouling activity at 10 µg/mL ([9]; 10 µg/mL, 48 h exposure, triplicate (n = 3)): inactive; EC50(µg/mL) [9, 12]: Inactive; IC50 (H460, Neuro-2a, MCF7; MCF7 value from current study): 70 to 1400 nM; IC50 (MCF7 breast cancer cells [8]): 70 nM

Q: Which “IC50 (µM)” value (H460) does the source give for Lyngbyabellin M here?
A: Inactive

Q: For Carmabin A, which IC50 (Plasmodium [5]; Pico-Green) is on record?
A: 4300 nM

Q: Which EC50 [9, 12] does the source give for 27-deoxylyngbyabellin A [Compound 5] here?
A: 0.09 µg/mL

Q: What about the “Toxicity to A.amphitrite barnacle cypris (remark in EC50 cell)” value ([9]; current study) of the same molecule?
A: 0.09 (but toxic)

Q: What about the Toxicity to larvae ([9]; exposed to 1 µg/mL, dead cyprids counted after 120 h of exposure) of the same molecule?
A: almost all the larvae were dead

Q: What about the IC50 (HT29, HeLA, MCF7) of the same molecule?
A: 7.3 to 310 nM

Q: What about the IC50 (MCF7 breast cancer cells [8]) of the same molecule?
A: 310 nM

Q: Which IC50 (Plasmodium [5]; Sybr Green) does the source give for Companeramide A here?
A: 5700 nM

Q: Which IC50 (Plasmodium [5]; Sybr Green) does the source give for Kakeromamide B here?
A: 8900 nM

Q: Which IC50 (Plasmodium [5]; Pico-Green) does the source give for Dragomabin here?
A: 6000 nM
